Results as given in US11542298B2, “Hydroxysteroid compounds, their intermediates, process of preparation, composition and uses thereof” (Epirium Bio Inc., priority 2014, dated 2023).
“And” between values parts separate entries of the source, which are not always exact repeats. Identical values can stand only once.

How the values were obtained:
AMP KINASE [1] = test: AMP KINASE phosphorylation, cell-based fluorescent ELISA (BioAssay Systems)
Procedure: The compounds of the present invention were tested for their activity on AMP KINASE. The activity on AMP KINASE was evaluated by quantitative fluorescent immunoenzymatic assay of AMP KINASE phosphorylation status in cultured cells. The 5-AMP-activated protein kinase (AMP KINASE) is a key sensor of intracellular energy balance. AMP KINASE is activated in response to an increase in the AMP/ATP ratio which can be caused by a number of factors such as muscle contraction, starvation, or hypoxia. AMP KINASE is a heterotrimeric protein complex comprising of α—(63 kDa), β—(38 kDa) and γ—(38 kDa) subunits. For each subunit, isoforms have been identified (α1, α2, β1, β2, γ1, γ2, γ3) which theoretically allow the formation of 12 different proteins. The α-subunit contains a serine/threonine kinase domain and the regulatory subunits contain binding sites for AMP and ATP (γ-subunit) and for glycogen (β-subunit). AMP KINASE is activated by phosphorylation on Thr-172 within the catalytic domain. AMP binding results in a 2 to 5-fold increase in AMP KINASE activity compared to the basal level. Binding of AMP to the γ-subunit causes allosteric activation of the kinase and induces a conformational change in the kinase domain that protects AMP KINASE from dephosphorylation of Thr-172.
BioAssay Systems' cell-based ELISA measure phosphorylated AMP KINASE in whole cells and normalizes the signal to the total protein content. The antibody recognizes both α-subunits and, thus, can be used for cells from all tissues (human, mouse, rat). This simple and efficient assay eliminates the need for cell lysate preparation and can be used to study AMP KINASE regulation in short-term and long-term assays. In this assay, cells grown in 96-well plates are fixed and permeabilized in the wells. AMP KINASE phosphorylation (pAMPK) is measured using a fluorescent ELISA followed by total protein measurement in each well.
A few illustrative compounds of the present invention were tested at 10 nM and the AMPkinase activation of the compounds is listed at Table 2: […]

HepG2 cells [2] = test: Intracellular glucose production (de novo gluconeogenesis) in HepG2 cells; type: cell-based; settings: HepG2, FIG. 5
Procedure: (§1) HepG2 cells were exposed to serum-free media for 3 hours and then exposed to gluconeogenic factors (lactate and pyruvate 10:1 ratio) and stimulators (cAMP) in the presence of increasing concentrations of OHP (in nM). Intracellular glucose production—a marker of de novo gluconeogenesis—was determined enzymatically (biovision glucose determination kit), as well as intracellular beta-hydroxybutyrate levels (a marker of fat oxidation) and triglycerides (substrate for fat oxidation). […] The results are depicted at FIG. 5.

[3] = tested on: mitochondrial oxidative phosphorylation complex I; test: Western blot of mitochondrial oxidative phosphorylation complex I protein levels in human coronary artery endothelial cells; type: cell-based; settings: HCAEC, 48 h, FIG. 1a
Procedure: Cells were grown in Dulbecco's modified Eagle's media supplemented with fetal bovine serum (10%) to ˜90% confluence. Cells were treated with either vehicle (water) or incremental doses of the agent (dissolved in water) for a total of 48 h (treatment was repeated at the 24 h time point). At the end of the experiment, cells were lysed in Western blot sample buffer. A fixed amount of protein (25 micrograms) was loaded onto a polyacrylamide gel and run for 1 h to allow for the electrophoretic separation of proteins. The gel was then transferred onto a polyvinyl membrane for incubation with blocking buffer prior to exposure to the 1ry antibody (anti-human complex […]. Following a 1 h incubation at room temperature the membrane was washed and then exposed to the 2ry antibody for 1 h. after a second set of washes the membrane was incubated with an enhanced-chemiluminescence kit solution followed by exposure to X-ray film. The image obtain was used to quantitative changes in complex I protein levels as a function of compound dose. To normalize for loading differences the membrane was re-incubated (as above) with the subunit 6 ribosomal protein (S6RP) and exposed to X-ray film. Changes in values for complex I levels are normalized to differences in S6RP levels. All data are normalized to the values noted for cells treated with vehicle only (=100%). The results are presented at FIG. 1 a.

AMP KINASE [4] = test: AMP KINASE activation, cell based ELISA in Hepatoma (Hep 2) liver cells; settings: 30 m, over baseline of 100 (DMSO control)
Procedure: AMP KINASE activation potential of the compounds was evaluated using cell based ELISA·Hepatoma (Hep 2) liver cells were maintained in a T 75 culture flask-containing 25 mM DMEM+10% fetal calf serum. The cells were maintained in a T 75 culture flask-containing medium (DMEM+10% fetal calf serum). On reaching a confluence of 70 to 80%, the cells were seeded in a 96 well plate at a density of 40,000 cells per well in 25 mM DMEM+10% FCS medium. The plates were then incubated at 37° C. with 5% CO2 for 24 hours. Various concentrations of drugs were prepared in DMSO and diluted to required concentration with the medium and incubated at 37° C. with 5% CO2 for 30 min and 1 h for Epicatechin analogs and 11-BHP analogs respectively. Metformin was used as positive control·Cells were fixed with 4% formaldehyde for 30 minutes at room temperature and washed three times with PBS containing 0.1% Triton X-100. Endogenous peroxidase was quenched with 1% H2O2 in PBS-T (0.1% Tween 20) for 30 minutes and washed three times in PBS-T. Cells were blocked with 1% BSA in PBS-T for 1 hour. The cells were incubated with 1:1000 dilution primary antibody (Phospho-AMPKα ([…]) Rabbit mAb, Cell Signaling in PBS-T containing 5% BSA at 4° C. overnight. The cells were then washed three times with PBS-T for 5 minutes and incubated with 1:1000 dilution secondary antibody (Anti-rabbit IgG, HRP-linked Antibody, Cell Signaling) in PBS-T with 1% BSA for 1 hour at RT·Cells were washed three times with PBS-T for 5 minutes The cells were incubated with 100 μl TMB substrate solution for 30 minutes and the reaction was stopped with 100 μl of 2N H2SO4. Then the plate was read at 450 nm using ELISA plate reader and absorbance recorded. % activity was calculated using DMSO control as 100%.

HepG2 cells [5] = test: Fat oxidation (intracellular beta-hydroxybutyrate, triglycerides) in HepG2 cells; type: cell-based; settings: HepG2, FIG. 5
Procedure: as §1

HepG2 cells [6] = test: Mitochondrial DNA content in HepG2 cells; type: cell-based; settings: HepG2, 24 hours, FIG. 3b
From the text: The results are depicted at FIGS. 3a and 3b.

AMPKinase = AMPKinase activation in HepG2 cells (Western blot of phosphorylated AMPK and ACC); type: cell-based; settings: HepG2, 1 hour, FIG. 2a
From the text: OHP effects on AMPKinase activation in HepG2 cells. […] (RNeasy kit, QIAGEN). OHP effects on APPL1 nuclear translocation. […] The results are presented at FIGS. 2a and 2b.

[7] = listed as 11β-hydroxypregnenolone

SMILES: C[C@]12CCC(=O)NC1CCC1C3CCC(O)[C@@]3(C)C[C@H](O)C12 (stereo partly drawn) [Compound 1023, (4aR,5S,6aS)-5,7-dihydroxy-4a,6a-dimethyltetradecahydro-1H-indeno[5,4-f]quinolin-2(3H)-one]
- AMPKinase Activation at 10 nM (AMP KINASE [1]): 2.46

SMILES: CC1([C@H]2CCC3C4CC=C5NC(=O)CC[C@]5(C)C4[C@@H](O)C[C@@]32C)OCCO1 (stereo partly drawn) [Compound 1025, (4aR,5S,6aS,7S)-5-hydroxy-4a,6a-dimethyl-7-(2-methyl-1,3-dioxolan-2-yl)-4,4a,4b,5,6,6a,- 7,8,9,9a,9b,10-dodecahydro-1H-indeno[5,4-f]quinolin-2(3H)-one]
- AMPKinase Activation at 10 nM (AMP KINASE [1]): 2.11

SMILES: CC1([C@H]2CCC3C4CC=C5NC(=O)CC[C@]5(C)C4[C@@](C)(O)C[C@@]32C)OCCO1 (stereo partly drawn) [Compound 1026, (4aR,5S,6aS,7S)-5-hydxoxy-4a,5,6a-trimethyl-7-(2-methyl-1,3-dioxolan-2-yl)-4,4a,4b,5,6,6a,- 7,8,9,9a,9b,10-dodecahydro-1H-indeno[5,4-f]quinolin-2(3H)-one]
- AMPKinase Activation at 10 nM (AMP KINASE [1]): 1.69 and 2.17

SMILES: C[C@]12CCC(=O)NC1=CCC1C2[C@@H](O)C[C@@]2(C)C1CC[C@@H]2C(=O)O (stereo partly drawn) [Compound 1027, (4aR,5S,6aS,7S)-5-hydroxy-4a,6a-dimethyl-2-oxo-2,3,4,4a,4b,5,6,- 6a,7,8,9,9a,9b,10-tetradecahydro-1H-indeno[5,4-f]quinoline-7-carboxylic acid]
- AMPKinase Activation at 10 nM (AMP KINASE [1]): 1.85

SMILES: COc1ccc2c(c1)CCC1C2[C@@H](O)C[C@]2(C)C(C(C)O)CCC12 (stereo partly drawn) [Compound 1030, (11S,13S)-17-(1-hydroxyethyl)-3-methoxy-13-methyl-7,8,9,11,12,- 13,14,15,16,17-decahydro-6H-cyclopenta[a]phenanthren-11-ol]
- AMPKinase Activation at 10 nM (AMP KINASE [1]): 1.51

SMILES: Cc1ccc(O)c2c1C1C(CC2)C2CC[C@H](C(=O)O)[C@@]2(C)C[C@@H]1O (stereo partly drawn) [Compound 1035, (11S,13S,17S)-4,11-dihydroxy-1,13-diinethyl-7,8,9,11,12,13,- 14,15,16,17-decahydro-6H-cyclopenta[a]phenanthrene-17-carboxylic acid]
- AMPKinase Activation at 10 nM (AMP KINASE [1]): 1.76

SMILES: CC(C)(O)[C@H]1CCC2C3CC=C4NC(=O)CC[C@]4(C)C3[C@@H](O)C[C@@]21C (stereo partly drawn) [Compound 1038, (4aR,5S,6aS,7S)-5-hydroxy-7-(2-hydroxypropan-2-yl)-4a,6a-dimethyl-4,4a,4b,5,6,6a,7,8,9,- 9a,9b,10-dodecahydro-1H-indeno-[5,4-f]quinolin-2(3H)-one]
- AMPKinase Activation at 10 nM (AMP KINASE [1]): 1.70

SMILES: CC(=O)C1CC[C@H]2[C@@H]3CC=C4CC(O)CC[C@]4(C)[C@H]3[C@@H](O)C[C@]12C (stereo partly drawn) [Compound 1039, 1-((8S,9S,10R,11S,13S,14S)-3,11-dihydroxy-10,13-dimethyl-2,3,4,- 7,8,9,10,11,12,13,14,15,16,17-tetradecahydro-1H-cyclopenta[a]-phenanthren-17-yl)ethanone]
- hepatic gluconeogenesis (intracellular glucose production) (HepG2 cells [2]): reduces hepatic gluconeogenesis
- hepatic gluconeogenesis (intracellular glucose production) (HepG2 cells [2]; [7]): reduction of hepatic gluconeogenesis
- mitochondrial biogenesis (complex I protein levels) [3]: causes mitochondrial biogenesis
- mitochondrial biogenesis (complex I protein levels) [3, 7]: mitochondrial biogenesis
- % pAMPK (AMP KINASE [4]; 0.1 nM): 109%
- fat oxidation (HepG2 cells [5]): stimulates oxidation of fat
- fat oxidation (HepG2 cells [5]; [7]): stimulation of fat oxidation
- mitochondrial DNA content (HepG2 cells [6]): increases the DNA content of mitochondria
- mitochondrial DNA content (HepG2 cells [6]; [7]): increase of mitochondrial DNA content
- activation of AMP kinase (AMPKinase): activates AMPkinase
- activation of AMP kinase (AMPKinase; [7]): activation of AMP KINASE

SMILES: CC(=O)C1CC[C@H]2[C@@H]3CCC4=CC(=O)CC[C@]4(C)[C@H]3[C@@H](O)C[C@]12C (stereo partly drawn) [Compound 1040, (8S,9S,10R,11S,13S,14S)-17-acetyl-11-hydroxy-10,13-dimethyl-6,7,8,9,10,11,12,13,- 14,15,16,17-dodecahydro-1H-cyclopenta[a]phenanthren-3(2H)-one]
- % pAMPK (AMP KINASE [4]; 0.1 nM): 118%

SMILES: CN(C)C(=N)N=C(N)N [Metformin, reference compound]
- % pAMPK (AMP KINASE [4]; 2 mM): 121%
